Test results: patent US20070167511A1, “Medicinal composition for prevention or treatment of overactive bladder accompanying nervous disorder” (KISSEI PHARMACEUTICAL CO,. LTD., priority 2004, published 2007)

System: rat spinal cord injured OAB model
Test: Urodynamic study (cystometry) in rat spinal cord injured OAB model
Format: in vivo
Details: conscious female rats with spinal cord transection at Th10, intravenous injection 0.1 mg/kg
Method: Efficacy on Urodynamic Study in Rat Spinal Cord Injured OAB Model
In ether anesthetized female rats, spinal cord transection was performed at the level of Th10. About 1 month after the spinal cord transection, each rat was anesthetized with pentobarbital and a catheter filled with saline was implanted into the urinary bladder, ligated, secured on the back of the neck and closed. Seven days after the bladder catheter implantation, another catheter filled with heparin-containing saline was implanted into the […], and ligated, secured on the back of the neck and closed. The next day, cystometry was performed in the conscious rat under free moving. Saline was instilled into the urinary bladder at a rate of 12 mL/hr. A drug was injected through the […] catheter that was secured on the back of the neck. […] Intravenous injection of compound 1 (0.1 mg/kg) prolonged the micturition interval by about 20% (FIG. 1) and decreased the frequency of involuntary contraction in filling phase by 20% (FIG. 2) in the same model.

C[C@H](Cc1cc2c(c(C(N)=O)c1)N(CCCO)CC2)NCCOc1ccccc1OCC(F)(F)F [compound 1, (−)-1-(3-hydroxypropyl)-5-((2R)-2-{[2-({2-[(2,2,2-trifluoroethyl)oxy]phenyl}oxy)ethyl]amino}propyl)-2,3-dihydro-1H-indol-7-yl-carboxamide]
prolongation of the micturition interval (versus value before drug administration (FIG. 1)): about 20% | decrease of the frequency of involuntary contraction in filling phase (versus value before drug administration (FIG. 2)): 20%
